Laboratory results as given in article PMC12029774 (Molecules, 2025).
Ends that are not written are not given here.

Experiments:
[1] = tested on: rVSV-GFP-∆G-Spike, SARS-CoV-2 Omicron B.A1 spike; details: 1 h
[2] = tested on: rVSV-GFP-∆G-Spike, SARS-CoV-2 Delta spike; details: 1 h

## EWHGAHIKVTQLF-NH2 [PEP10]
[1]
  IC50: 140 µM
[2]
  IC50: 47 µM
